Data from US20230174507A1, “IMIDAZOLE 3-OXIDE DERIVATIVE BASED ACSS2 INHIBITORS AND METHODS OF USE THEREOF” (METABOMED LTD., priority 2020, published 2023).
pIC50: −log10 of the molar value.

How the values were obtained:
[1] = target: T1, ACSS2 in MDA-MB-468 cells (Homo sapiens, UniProt Q9NR19); assay: Cellular fatty-acid IC50: 13C-acetate incorporation into fatty acids (palmitate), LC-MS; assay type: cell-based; conditions: hypoxic conditions (1% O2), 75% charcoal stripped serum, 5 hours, 13C-acetate into palmitate, read-out: Cellular Fatty-acid IC50 High Serum MDA468
T1 construct: endogenous in cells; host or cells: MDA-MB-468 cells, hypoxia (1% O2)
Method in brief: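 MDA-MB-468 cells under hypoxia (1% O2) treated 5 h with compound (0.000512-1000 nM) in medium with 75% charcoal-stripped serum and 0.5 mM 13C-acetate. 13C-palmitate quantified by LC-MS (negative ion, RSIM). IC50 from inhibition versus no-compound control, background-subtracted, constrained 0–100% nonlinear fit.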

human ACSS2 protein = target: T2, human ACSS2 protein (Homo sapiens, UniProt Q9NR19); assay: ACSS2 cell-free activity assay (pyrophosphatase-coupled, Biomol green); conditions: 10 nM human ACSS2, 90 minutes at 37 C, absorbance at 620 nm; read-out: ACSS2 Biochemical IC50
T2 construct: purchased OriGene Technologies, Inc
Method in brief: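 10 nM human ACSS2 incubated 90 min at 37 C with compound, 300 μM ATP, 10 μM CoA, 5 mM NaAc in pH 7.5 Hepes buffer with 0.5 U/ml pyrophosphatase. Released phosphate detected with Biomol Green at 620 nm; IC50 by non-linear regression constrained to 0% and 100%.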

human ACSS1 protein = target: T3, human ACSS1 protein (Homo sapiens, UniProt Q9NUB1); assay: ACSS1 cell-free activity assay (pyrophosphatase-coupled, Biomol green); assay type: biochemical; conditions: 5 nM human ACSS1, 30 minutes at room temperature, absorbance at 620 nm; for pIC50: read-out: ACSS1 Biochemical IC50
T3 construct: purchased MyBioSource
T3 sequence (Q9NUB1 38-689): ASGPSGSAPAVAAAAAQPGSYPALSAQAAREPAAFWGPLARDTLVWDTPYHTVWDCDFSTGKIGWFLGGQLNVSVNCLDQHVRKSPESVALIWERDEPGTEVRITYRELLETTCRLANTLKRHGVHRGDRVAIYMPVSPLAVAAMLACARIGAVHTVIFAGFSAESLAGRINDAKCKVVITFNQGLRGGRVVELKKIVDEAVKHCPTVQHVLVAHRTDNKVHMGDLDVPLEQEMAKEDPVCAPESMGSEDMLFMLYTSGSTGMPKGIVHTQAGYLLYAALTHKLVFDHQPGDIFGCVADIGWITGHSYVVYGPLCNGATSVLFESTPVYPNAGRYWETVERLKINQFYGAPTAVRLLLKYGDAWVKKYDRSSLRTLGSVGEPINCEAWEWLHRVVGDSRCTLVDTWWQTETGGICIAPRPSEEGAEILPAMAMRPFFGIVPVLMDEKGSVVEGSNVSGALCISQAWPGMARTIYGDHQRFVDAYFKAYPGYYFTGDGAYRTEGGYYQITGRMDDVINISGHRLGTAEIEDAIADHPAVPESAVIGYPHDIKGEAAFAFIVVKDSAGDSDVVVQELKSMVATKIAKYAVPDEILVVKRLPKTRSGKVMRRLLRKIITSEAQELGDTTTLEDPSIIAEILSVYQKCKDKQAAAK
Method in brief: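 5 nM human ACSS1 incubated 30 min at RT with compound in pH 7.5 Hepes buffer with 15 μM CoA, 5 mM acetate, 300 μM ATP, 2 mM MgCl2 and pyrophosphatase. Released phosphate detected with Biomol Green (30 min), absorbance 620 nm. IC50 from constrained non-linear regression.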

T2 sequence (Q9NR19 whole entry): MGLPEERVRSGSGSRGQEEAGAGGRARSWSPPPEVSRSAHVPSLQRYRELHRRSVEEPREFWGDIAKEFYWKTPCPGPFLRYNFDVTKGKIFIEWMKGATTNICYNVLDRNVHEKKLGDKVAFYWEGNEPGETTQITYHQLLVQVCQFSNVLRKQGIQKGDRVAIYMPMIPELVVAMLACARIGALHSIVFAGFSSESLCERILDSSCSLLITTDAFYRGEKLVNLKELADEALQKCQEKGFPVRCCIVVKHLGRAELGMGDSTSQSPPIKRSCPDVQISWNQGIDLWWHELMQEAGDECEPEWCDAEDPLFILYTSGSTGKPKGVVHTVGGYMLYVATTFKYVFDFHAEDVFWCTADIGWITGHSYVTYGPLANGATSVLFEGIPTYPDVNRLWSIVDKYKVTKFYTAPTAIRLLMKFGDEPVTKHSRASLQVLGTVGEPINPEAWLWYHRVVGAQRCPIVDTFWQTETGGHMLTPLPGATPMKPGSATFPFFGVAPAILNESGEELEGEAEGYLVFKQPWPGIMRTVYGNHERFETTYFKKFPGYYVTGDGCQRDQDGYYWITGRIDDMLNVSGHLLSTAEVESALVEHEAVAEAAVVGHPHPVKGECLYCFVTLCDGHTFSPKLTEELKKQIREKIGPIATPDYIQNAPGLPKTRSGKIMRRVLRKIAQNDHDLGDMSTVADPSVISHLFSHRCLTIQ
T1 sequence (Q9NR19 whole entry): as above

Row | pIC50 [1] | pIC50 (human ACSS2 protein) | ACSS1 Biochemical IC50 (nM) (human ACSS1 protein) | pIC50 (human ACSS1 protein) | Compound
1 | > 7.70 | > 9.00 | Inactive |  | COc1ccc(-c2[nH]c(C)c(C(=O)Nc3cccc(-c4cnn(C)n4)c3)[n+]2[O-])cc1-c1c(C)cccc1C [Compound 201, 2-(6-methoxy-2′,6′-dimethyl-[1,1′-biphenyl]-3-yl)-5-methyl-4-((3-(2-methyl-2H-1,2,3-triazol-4-yl)phenyl)carbamoyl)-1H-imidazole 3-oxide]
2 | 7.30 to 7.70 | > 9.00 | Inactive |  | COc1cc(-c2c(C)cccc2C)cc(-c2[nH]c(C)c(C(=O)Nc3cccc(C(F)(F)C4CC4)c3)[n+]2[O-])c1 [Compound 131, 4-((3-(cyclopropyldifluoromethyl)phenyl)carbamoyl)-2-(5-methoxy-2′,6′-dimethyl-[1,1′-biphenyl]-3-yl)-5-methyl-1H-imidazole 3-oxide]
3 | > 7.70 | > 9.00 | Inactive |  | CCC(F)(F)c1cccc(NC(=O)c2c(C)[nH]c(-c3cccc(-c4ncncc4C)c3)[n+]2[O-])c1 [Compound 109, 4-((3-(1,1-difluoropropyl)phenyl)carbamoyl)-5-methyl-2-(3-(5-methylpyrimidin-4-yl)phenyl)-1H-imidazole 3-oxide]
4 | > 7.70 | > 9.00 | Inactive |  | CCC(F)(F)c1cccc(NC(=O)c2c(C)[nH]c(-c3cccc(-c4c(C)cccc4C)c3)[n+]2[O-])c1 [Compound 107, 4-((3-(1,1-difluoropropyl)phenyl)carbamoyl)-2-(2′,6′-dimethyl-[1,1′-biphenyl]-3-yl)-5-methyl-1H-imidazole 3-oxide]
5 | < 7.30 | > 9.00 | Inactive |  | COc1cc(F)c(-c2[nH]c(C)c(C(=O)Nc3cccc(C(F)(F)F)c3)[n+]2[O-])cc1-c1c(F)cccc1F [Compound 207, 5-methyl-2-(2′,4,6′-trifluoro-6-methoxy-[1,1′-biphenyl]-3-yl)-4-((3-(trifluoromethyl)phenyl)carbamoyl)-1H-imidazole 3-oxide]
6 | > 7.70 | > 9.00 | Inactive |  | COc1ccc(-c2[nH]c(C)c(C(=O)Nc3cccc(C(F)(F)F)c3)[n+]2[O-])cc1-c1c(C)cccc1C [Compound 171, 2-(6-methoxy-2′,6′-dimethyl-[1,1′-biphenyl]-3-yl)-5-methyl-4-((3-(trifluoromethyl)phenyl)carbamoyl)-1H-imidazole 3-oxide]
7 | < 7.30 | 7.52 to 9.00 | Inactive |  | COc1ccc(-c2[nH]c(C)c(C(=O)Nc3cccc(S(=O)(=O)N(C)C)c3)[n+]2[O-])cc1-c1c(C)cccc1C [Compound 179, 4-((3-(N,N-dimethylsulfamoyl)phenyl)carbamoyl)-2-(6-methoxy-2′,6′-dimethyl-[1,1′-biphenyl]-3-yl)-5-methyl-1H-imidazole 3-oxide]
8 | 7.30 to 7.70 | > 9.00 | Inactive |  | CCC(F)(F)c1cccc(NC(=O)c2c(C)[nH]c(-c3ccc(OC(F)F)c(-c4c(C)cccc4C)c3)[n+]2[O-])c1 [Compound 103, 2-(6-(difluoromethoxy)-2′,6′-dimethyl-[1,1′-biphenyl]-3-yl)-4-((3-(1,1-difluoropropyl)phenyl)carbamoyl)-5-methyl-1H-imidazole 3-oxide]
9 | > 7.70 | > 9.00 |  | < 7.52 | CCC(F)(F)c1cccc(NC(=O)c2c(C)[nH]c(-c3cccc(-c4nccnc4C)c3)[n+]2[O-])c1 [Compound 110, 4-((3-(1,1-difluoropropyl)phenyl)carbamoyl)-5-methyl-2-(3-(3-methylpyrazin-2-yl)phenyl)-1H-imidazole 3-oxide]
10 | 7.30 to 7.70 | 7.52 to 9.00 | Inactive |  | CNc1cc(-c2c(C)cccc2C)cc(-c2[nH]c(C)c(C(=O)Nc3cccc(C(F)(F)C4CC4)c3)[n+]2[O-])c1 [Compound 147, 4-((3-(cyclopropyldifluoromethyl)phenyl)carbamoyl)-2-(2′,6′-dimethyl-5-(methylamino)-[1,1′-biphenyl]-3-yl)-5-methyl-1H-imidazole 3-oxide]
11 | > 7.70 | > 9.00 | Inactive |  | Cc1cncc(C)c1-c1cc(-c2[nH]c(C)c(C(=O)Nc3cccc(C(F)(F)C4CC4)c3)[n+]2[O-])ccc1OC(F)F [Compound 115, 4-((3-(cyclopropyldifluoromethyl)phenyl)carbamoyl)-2-(4-(difluoromethoxy)-3-(3,5-dimethylpyridin-4-yl)phenyl)-5-methyl-1H-imidazole 3-oxide]
12 | < 7.30 | > 9.00 | Inactive |  | CC(=O)c1cc(-c2c(C)cccc2C)cc(-c2[nH]c(C)c(C(=O)Nc3cccc(C(F)(F)C4CC4)c3)[n+]2[O-])c1 [Compound 142, 2-(5-acetyl-2′,6′-dimethyl-[1,1′-biphenyl]-3-yl)-4-((3-(cyclopropyldifluoromethyl)phenyl)carbamoyl)-5-methyl-1H-imidazole 3-oxide]
13 | > 7.70 | > 9.00 | Inactive |  | CCC(F)(F)c1cccc(NC(=O)c2c(C)[nH]c(-c3cccc(-c4c(C)cnnc4C)c3)[n+]2[O-])c1 [Compound 116, 4-((3-(1,1-difluoropropyl)phenyl)carbamoyl)-2-(3-(3,5-dimethylpyridazin-4-yl)phenyl)-5-methyl-1H-imidazole 3-oxide]
14 | 7.30 to 7.70 | > 9.00 | Inactive |  | CCC(F)(F)c1cccc(NC(=O)c2c(C)[nH]c(-c3ccc(OC)c(-c4c(Cl)cccc4Cl)c3)[n+]2[O-])c1 [Compound 126, 2-(2′,6′-dichloro-6-methoxy-[1,1′-biphenyl]-3-yl)-4-((3-(1,1-difluoropropyl)phenyl)carbamoyl)-5-methyl-1H-imidazole 3-oxide]
15 | > 7.70 | > 9.00 |  | < 7.52 | CNC(=O)c1cccc(NC(=O)c2c(C)[nH]c(-c3cc(NC)cc(-c4c(C)cccc4C)c3)[n+]2[O-])c1 [Compound 181, 2-(2′,6′-dimethyl-5-(methylamino)-[1,1′-biphenyl]-3-yl)-5-methyl-4-((3-(methylcarbamoyl)phenyl)carbamoyl)-1H-imidazole 3-oxide]
16 | > 7.70 | > 9.00 | Inactive |  | CCC(F)(F)c1cccc(NC(=O)c2c(C)[nH]c(-c3cc(-c4c(C)cccc4C)c(OC)cc3F)[n+]2[O-])c1 [Compound 125, 4-((3-(1,1-difluoropropyl)phenyl)carbamoyl)-2-(4-fluoro-6-methoxy-2′,6′-dimethyl-[1,1′-biphenyl]-3-yl)-5-methyl-1H-imidazole 3-oxide]
17 | > 7.70 | > 9.00 | Inactive |  | COc1ccc(-c2[nH]c(C)c(C(=O)Nc3cccc(C(=O)N(C)C)c3)[n+]2[O-])cc1-c1c(C)cccc1C [Compound 119, 4-((3-(dimethylcarbamoyl)phenyl)carbamoyl)-2-(6-methoxy-2′,6′-dimethyl-[1,1′-biphenyl]-3-yl)-5-methyl-1H-imidazole 3-oxide]
